Test results from US20250144083A1, “METHODS AND COMPOSITIONS FOR TREATING CANCER IN TAXANE-RESISTANT PATIENTS” (MODRA PHARMACEUTICALS B.V., priority 2022, published 2025).
“And” between values parts separate entries of the source, which are not always exact repeats. Equal entries are not always repeated. Where two headings read alike, the source gives them in different places.

Experiments:
Assay type in all cases: cell-based
[1] = system: DU-145 prostate cancer cells; assay: 3D clonogenic assay, parental DU-145; conditions: Homo sapiens, read-out: IC50 value of docetaxel
Method: (§1) For the single agent efficacy experiment, a master stock solution of cabazitaxel was prepared by dissolving compound powder in DMSO at a concentration of 10 mM. From this a working stock solution of 0.1 mM (330-fold the highest test concentration) was prepared. Small aliquots of this solution were stored at −20° C. On each day of an experiment, a frozen aliquot of the working stock solution was thawed and stored at room temperature prior to and during treatment. First, serial half-log dilutions of the working stock solution were prepared in DMSO. These dilutions were then diluted 1:22 into cell culture medium in an intermediate dilution plate. Finally, 10 μl taken from the intermediate dilution plate were transferred to 140 μl/well of the final assay plate. Thus, the DMSO working stock was diluted 1:330, and the DMSO concentration in the assay was 0.3% v/v.
(§2) For combination experiments, working stock solutions of docetaxel, ritonavir, elacridar, and cabazitaxel were prepared in DMSO at concentrations of 660-fold the highest test concentration used. Small aliquots of this stock solution were stored at −20° C. On each day of an experiment, a frozen aliquot of the working stock solutions was thawed and stored at room temperature prior to and during treatment. First, 1:2 dilutions of 660-fold concentrated working stocks were done in DMSO (in case of monotherapy controls), or equal amounts of the compound working stocks were mixed (in case of drug combinations). Then, different dilutions of these 330-fold concentrated solutions were done in DMSO to give a 8*2 matrix combination layout. The DMSO dilutions were further diluted 1:22 into cell culture medium (IMDM, supplemented with 20% (v/v) fetal calf serum, 50 μg/ml gentamicin) in an intermediate dilution plate. Finally, 10 μl taken from the intermediate dilution plate were transferred to 140 μl of cells and medium per well of the final assay plate. Thus, the DMSO dilutions used for the mono- and the combination-treatment were diluted 1:330, and the DMSO concentration in the assay was 0.3% v/v.
(§3) DU-145 DOC10 was generated from DU-145 and 22Rv1 DOC8 was generated from 22Rv1. 22Rv1 was obtained from American Type Culture Collection (ATCC, Rockville, MD, USA), whereas DU-145 was obtained from National Cancer Institute (NCI, Bethesda, MD, USA).
(§4) Tumour cell lines were grown at 37° C. in a humidified atmosphere with 5% CO2 in RPMI 1640 medium (Biochrom) supplemented with 10% (v/v) fetal calf serum and 50 μg/ml gentamicin. Docetaxel resistant sublines were cultured in the presence of 8 nM (22Rv1) or 10 nM docetaxel (DU-145). The cells were routinely passaged once or twice weekly and maintained in culture for up to 20 passages. For the assay, cells were harvested using TrypLE and the percentage of viable cells was determined by the CASY TT cell counter (OMNI Life Science).
(§5) The clonogenic assay was carried out in a 96 well plate format using ultra low attachment plates. For each test, cells were prepared and assay plates were prepared as follows: each test well contained a layer of semi-solid medium with tumour cells (50 μl), and a second layer of medium supernatant with or without test compound (100 μl). The cell layer consisted of 2·10^3 to 3·10^3 tumour cells per well, which were seeded in 50 μl/well cell culture medium (IMDM, supplemented with 20% (v/v) fetal calf serum, 50 μg/ml gentamicin, and 0.4% (w/v) agar). After 24 h, the soft-agar layer was covered with 90 μl of the same culture medium without agar, and 10 μl of control medium or test compound after serial dilution in DMSO and transfer in cell culture medium were added, and left on the cells for the duration of the experiment (continuous exposure, 100 μl drug overlay). Every plate included six untreated control wells and drug-treated groups. Duplicate values were obtained by testing single values per condition on one plate. […]

[2] = system: DU-145 DOC10 prostate cancer cells; assay: 3D clonogenic assay, docetaxel-resistant DU-145 DOC10; conditions: for Relative Resist to docetaxel: compared to parental DU-145 cells without elacridar; for Relative Resistance to docetaxel: compared to parental DU-145 cells without ritonavir; for IC50: Homo sapiens, read-out: IC50 value of docetaxel
Method: as §1, §2, §3, §4, §5

[3] = system: 22Rv1 prostate cancer cells; assay: 3D clonogenic assay, parental 22Rv1; conditions: Homo sapiens; 22Rv1, without elacridar; from previously performed experiment; read-out: IC50 value of docetaxel
Method: as §1
as §2, with “Finally, 10 μl taken from the intermediate dilution plate were transferred to 140 μl of cells and medium per well of the final assay plate. Thus, the DMSO dilutions used for the mono- and the combination-treatment were diluted 1:330, and the DMSO concentration in the assay was 0.3% v/v.” left out
Tumour cell lines were grown at 37° C. in a humidified atmosphere with 5% CO2 in RPMI 1640 medium (Biochrom) supplemented with 10% (v/v) fetal calf serum and 50 μg/ml gentamicin. […] For the assay, cells were harvested using TrypLE and the percentage of viable cells was determined by the CASY TT cell counter (OMNI Life Science). […]

[4] = system: 22Rv1 DOC8 prostate cancer cells; assay: 3D clonogenic assay, docetaxel-resistant 22Rv1 DOC8; conditions: for Relative Resist to docetaxel: compared to parental 22Rv1 cells without elacridar; for IC50: Homo sapiens
Method: as §1, §2, §3, §4, §5

[5] = system: DU-145 DOC10 prostate cancer cells; assay: 2D culture docetaxel resistance, DU-145 DOC10 vs DU-145; conditions: 2D setup, DU-145 cells exposed to docetaxel for 3 months
[6] = system: 22Rv1 DOC8 prostate cancer cells; assay: 2D culture docetaxel resistance, 22Rv1 DOC8 vs 22Rv1; conditions: 2D setup, 22Rv1 cells exposed to docetaxel for 3 months

For `CC(=O)O[C@@]12CO[C@@H]1C[C@H](O)[C@@]1(C)C(=O)[C@H](O)C3=C(C)[C@@H](OC(=O)[C@H](O)[C@@H](NC(=O)OC(C)(C)C)c4ccccc4)C[C@@](O)([C@@H](OC(=O)c4ccccc4)[C@H]21)C3(C)C` [docetaxel], which IC50 ([1]; DU-145, DU-145, 0.3 μM elacridar) is on record?
The IC50 was 1.1 nM.

What about the IC50 ([1]; DU-145, DU-145, 1 μM elacridar) of the same compound?
Its IC50 is 1.1 nM.

And the IC50 ([1]; DU-145, DU-145, 1 μM ritonavir)?
Its IC50 is 1.8 nM.

What about the IC50 ([1]; DU-145, DU-145, 10 μM ritonavir) of the same compound?
Its IC50 is 1.7 nM.

What about the IC50 ([1]; DU-145, DU-145, without elacridar (elacridar experiment)) of the same compound?
Its IC50 is 1.1 nM.

And the IC50 ([1]; DU-145, DU-145, without ritonavir)?
Its IC50 is 2.9 nM.

And the “Relative Resist to docetaxel” value ([2]; DU-145 DOC10, 0.3 μM elacridar)?
The value was 1.7.

And the “Relative Resist to docetaxel” value ([2]; DU-145 DOC10, 1 μM elacridar)?
Its value is 1.5.

What about the “Relative Resistance to docetaxel” value ([2]; DU-145 DOC10, 1 μM ritonavir) of the same compound?
The value was 3.0.

And the “fold lower IC50 value (increase in sensitivity to docetaxel)” value ([2]; DU-145 DOC10, 10 μM ritonavir)?
Its value is 3.4 fold.

What about the “Relative Resistance to docetaxel” value ([2]; DU-145 DOC10, 10 μM ritonavir) of the same compound?
The value was 1.0.

And the “fold lower IC50 value (increase in sensitivity)” value ([2]; DU-145 DOC10, 10 μM ritonavir, cabazitaxel experiment (FIG. 10))?
The value was 2.5 fold.

What about the “Relative Resist to docetaxel” value ([2]; DU-145 DOC10 without elacridar) of the same compound?
The value was 11.

What about the “Relative Resistance to docetaxel” value ([2]; DU-145 DOC10 without ritonavir, 3D setup) of the same compound?
Its value is 3.3.

And the IC50 ([2]; DU-145, DU-145 DOC10, 0.3 μM elacridar)?
Its IC50 is 1.9 nM.

What about the IC50 ([2]; DU-145, DU-145 DOC10, 1 μM elacridar) of the same compound?
The IC50 was 1.6 nM.

What about the IC50 ([2]; DU-145, DU-145 DOC10, 1 μM ritonavir) of the same compound?
Its IC50 is 8.8 nM.

What about the IC50 ([2]; DU-145, DU-145 DOC10, 10 μM ritonavir) of the same compound?
The IC50 was 2.8 nM.

And the IC50 ([2]; DU-145, DU-145 DOC10, without elacridar (elacridar experiment))?
The IC50 was 11.7 nM.

And the IC50 ([2]; DU-145, DU-145 DOC10, without ritonavir)?
The IC50 was 9.5 nM.

What about the IC50 [3] of the same compound?
The IC50 was 1.3 nM.

And the “fold decrease of relative IC50 value of docetaxel” value ([4]; 31.6 μM ritonavir, cell line not given)?
The value was 84 fold.

What about the “resistance to docetaxel, fold” value ([4]; 3D setup (clonogenic assay), 22Rv1 DOC8 vs parental) of the same compound?
Its value is 42 fold.

What about the “Relative Resist to docetaxel” value ([4]; 22Rv1 DOC8, 0.3 μM elacridar) of the same compound?
Its value is 1.1.

And the “Relative Resist to docetaxel” value ([4]; 22Rv1 DOC8, 1 μM elacridar)?
The value was 1.

And the “fold lower IC50 value (increase in sensitivity)” value ([4]; 22Rv1 DOC8, 32 μM ritonavir, cabazitaxel experiment (FIG. 12))?
Its value is 14 fold.

What about the “fold lower IC50 value (increase in sensitivity to docetaxel)” value ([4]; 22Rv1 DOC8, 0.3 and 1 μM elacridar) of the same compound?
Its value is 100 fold.

And the “Relative Resist to docetaxel” value ([4]; 22Rv1 DOC8 without elacridar)?
Its value is 103.

What about the IC50 ([4]; 22Rv1, 31.6 μM ritonavir, cell line not given, read-out: relative IC50 value of docetaxel) of the same compound?
The IC50 was 2.6 nM.

What about the IC50 ([4]; 22Rv1, 22Rv1 DOC8, 0.3 μM elacridar, read-out: IC50 value of docetaxel) of the same compound?
Its IC50 is 1.4 nM.

And the IC50 ([4]; 22Rv1, 22Rv1 DOC8, 1 μM elacridar, read-out: IC50 value of docetaxel)?
Its IC50 is 1.3 nM.

And the IC50 ([4]; 22Rv1, 22Rv1 DOC8, 32 μM ritonavir, read-out: Docetaxel IC50 value)?
The IC50 was 3 nM.

And the IC50 ([4]; 22Rv1, 22Rv1 DOC8, without elacridar (elacridar experiment), read-out: IC50 value of docetaxel)?
Its IC50 is 134 nM.

What about the IC50 ([4]; 22Rv1, 22Rv1 DOC8, without ritonavir, read-out: Docetaxel IC50 value) of the same compound?
The IC50 was 202 nM.

And the IC50 ([4]; 22Rv1, without ritonavir, cell line not given, read-out: relative IC50 value of docetaxel)?
The IC50 was 219 nM.

And the “resistance to docetaxel: fold increase in IC50 value compared to parental, untreated cells” value [5]?
Its value is ~20 fold and 21 fold and 22 fold.

And the “resistance to docetaxel: fold increase in IC50 value compared to parental, untreated cells” value [6]?
Its value is > 100 fold and 105 fold and 134 fold.
